In the SangsterLogP compilation:

Tests used:
[1] = method code SF-AS, from DOI: 10.1016/s0003-2670(01)80868-0
[2] = method code SF-GLC, from DOI: 10.1016/j.chemosphere.2005.05.003, PMID: 15967478
[3] = method code SF, from DOI: 10.1016/0378-5173(86)90155-9; conditions: pH 7.0
[4] = method code SF-GLC, from DOI: 10.1021/es60128a001
[5] = not given; remark: listed apart in the source
[6] = method code SF-AS, from DOI: 10.1016/0006-2952(81)90362-2, PMID: 7271838; conditions: pH 7.5
[7] = method code SF-HPLC, from DOI: 10.1177/074823378700300403, PMID: 3433285
[8] = method code SF-AS/HPLC, from Ellington, J. J. (1988). Octanol/water partition coefficients for evaluation of hazardous waste land disposal: Selected chemicals. US Environmental Protection Agency, Environmental Research …
[9] = method code SF-AS, from DOI: 10.1016/0005-2736(69)90054-6, PMID: 5349616; conditions: pH 7.4
[10] = method code SF-RC, from DOI: 10.1016/j.apradiso.2010.08.010, PMID: 20843697; conditions: pH 7.4
[11] = method code SF-NMR, from DOI: 10.1016/j.jpba.2012.12.010, PMID: 23298914
[12] = method code SF, from DOI: 10.1038/bjc.1982.190, PMID: 7150475
[13] = method code SF-HPLC, from DOI: 10.1016/0168-3659(92)90067-2
[14] = method code SF, from DOI: 10.1248/yakushi1947.93.11_1452, PMID: 4273378
[15] = not given; remark: listed apart in the source
[16] = method code SF-HPLC, from DOI: 10.1016/0378-5173(90)90184-6; conditions: pH 4.0
[17] = method code SF-GLC, from DOI: 10.1021/jm00366a019, PMID: 6644745
[18] = method code SF-HPLC, from DOI: 10.1248/cpb.37.2861, PMID: 2611948; conditions: pH 4.0
[19] = not given; remark: listed apart in the source
[20] = not given; remark: listed apart in the source
[21] = method code SF-HPLC, from DOI: 10.1161/01.res.55.4.513, PMID: 6478555
[22] = not given; remark: listed apart in the source
[23] = method code SF-AS, from DOI: 10.1021/jm00051a006, PMID: 7996541
[24] = method code SF-AS, from DOI: 10.1021/acs.inorgchem.5b01238, PMID: 26280387
[25] = method code SF-AS, from Lippold, B.; Lichey, J. (1984). Transport of drugs through lipophilic polymer membranes. II. Influence of the partition and diffusion coefficients. Acta pharmaceutica technologica, 30(2)140-154.
[26] = method code SF-HPLC, from DOI: 10.1016/j.ejps.2015.05.008, PMID: 25968358; conditions: pH 7.4
[27] = method code SF-AS, from DOI: 10.1039/ft9959100995
[28] = not given; remark: listed apart in the source
[29] = method code SF-RC, from DOI: 10.1002/jlcr.2580210110; conditions: pH 7.4
[30] = method code SF-AS, from DOI: 10.1007/bf02273190
[31] = not given; remark: listed apart in the source
[32] = not given; remark: listed apart in the source
[33] = method code SF-AS, from DOI: 10.1021/bi00405a042
[34] = method code SF, from DOI: 10.1016/s0378-5173(98)00231-2
[35] = method code SF-HPLC, from Yu, G.; Xu, X. (1993). Determination of the 1-octanol/water partition coefficient of nitro-PAHs. Huanjing Huaxue, 12(4)299-303.

CCCCC(=O)CC(=O)CCCC
logP [1]: 3.56

C=C1C=CC(C(C)C)CC1 (configuration not stated)
logP [2]: 4.59

O=C(NCc1ccc(O)cc1)c1ccccc1
logD [3]: 1.87

COP(=O)(OC)O/C(C)=C/C(=O)OC(C)c1ccccc1 (configuration not stated)
logP: 3

CCOP(=S)(OCC)Oc1ccc(Cl)cc1Cl
logP [4]: 5.14

CN(C)CCSCc1ccccc1
logP [5]: 1.81

CCCCOC(=O)c1ccc(O)cc1
logD [6]: 3.32

CCN(CC)C(=O)c1ccccc1C
logP [7]: 2.02

ClC1=C(Cl)C2(Cl)C3C4C=CC(C4)C3C1(Cl)C2(Cl)Cl (configuration not stated)
logP: 5.67

CC(C)N(C(=O)SC/C(Cl)=C/Cl)C(C)C
logP [8]: 4.49

Cc1cc2ccccc2n1C
logD [9]: 2.82

O=C(NCCN1C(=O)C=CC1=O)c1cccc(I)c1
logD [10]: 1.03

COC(=O)[C@@H](N)Cc1ccc(O)c(I)c1
logD ([11]; pH 7.7): 0.26

CCCCOCC(O)Cn1ccnc1[N+](=O)[O-] (configuration not stated)
logD ([12]; pH 7.4): 1.11

COc1ccc(C[C@H](NC(C)=O)C(=O)N[C@H](Cc2ccc(OC)cc2)C(N)=O)cc1
logP [13]: 1.19

CCN(CC)C(=O)c1cccnc1
logP [14]: 0.86

O=C(O)c1ccc2ccccc2c1
logP [15]: 3.1

COP(=S)(OC)SCn1nnc2ccccc2c1=O
logP [7]: 2.43

CCCCCCNC(=O)n1cc(F)c(=O)[nH]c1=O
logD [16]: 2.63

CCCCOC(=O)c1ccc(N)cc1
logD [6]: 3.05

N[C@@H]1C[C@@H]2C[C@H]1c1ccc(C(F)(F)F)cc12
logD ([17]; pH 12.0): 3.21

CCOP(=S)(OCC)SCn1c(=O)oc2cc(Cl)ccc21
logP [4]: 4.3

Cc1ccc(Cn2cc(F)c(=O)[nH]c2=O)cc1
logD [18]: 1.5

CN(C)c1nc(=O)n(C2CCCCC2)c(=O)n1C
logP [19]: 1.85

CCCCNC(=O)c1cccnc1
logP [14]: 0.9

Clc1cc2c(oc3c(Cl)cc(Cl)c(Cl)c32)c(Cl)c1Cl
logP [20]: 7.51

Cc1cccc(C)c1NC(=O)CN
logP [21]: 0.41

CCSc1nc(NC(C)C)nc(NC(C)C)n1
logP [19]: 3.81

Cc1cc(Cl)ccc1OCCCC(=O)O
logP [22]: 3.28

CO[C@H]1N([C@H]2C[C@H](N=[N+]=[N-])[C@@H](CO)O2)C(=O)NC(=O)[C@@]1(C)Cl
logP [23]: 0.52

Cc1cc(Cl)ccc1OC(C)C(=O)O (configuration not stated)
logP [22]: 2.95

CC(=O)NC(Cc1ccc(O)cc1)C(N)=O (configuration not stated)
logP [13]: -0.7

CCSC(=S)C=C(O)c1ccc(O)cc1
logP [24]: 1.97

O=C(NCCN1C(=O)C=CC1=O)c1cncc(I)c1
logD [10]: 0.63

CCCCNC(=O)NS(=O)(=O)c1ccc(N)cc1
logP [25]: 1.18

C#CC(C)(C)NC(=O)c1cc(Cl)cc(Cl)c1
logP [8]: 3.43

CCCCC(=O)c1ccccc1
logD [26]: 3.03

CC(=O)Nc1ncc2ncn(COCCO)c2n1
logP [27]: -1.33

CC(C)(N)Cc1ccc(Cl)cc1
logP [28]: 2.6

O=[N+]([O-])c1nccn1CC(O)CN1CCCCC1 (configuration not stated)
logP [12]: 0.93

C=C1CCC2CC1C2(C)C (configuration not stated)
logP [2]: 4.43

FC12CC3CC(CC(C3)C1)C2
logD [29]: 5.7

CC(C1=C(CCN(C)C)Cc2ccccc21)c1ccccn1 (configuration not stated)
logP [25]: 2.7

COC(=O)[C@@H](N)Cc1cc(I)c(O)c(I)c1
logD ([11]; pH 6.7): 0.95

CCSC(=S)C=C(O)c1ccccc1
logP [24]: 1.93

CNC1CC2c3ccccc3C1C2O (configuration not stated)
logD ([17]; pH 13.0): 0.91

CCC(=O)N(C)c1ccc(S(=O)(=O)N(C)C)cc1
logP [30]: 0.71

CS(=O)CCCOc1ccc([N+](=O)[O-])cc1 (configuration not stated)
logD [3]: 0.93

CCCCCCCCNC(=O)n1cc(F)c(=O)[nH]c1=O
logD [16]: 3.9

Cc1cn([C@H]2C[C@H](N=[N+]=[N-])[C@@H](CO)O2)c(=O)[nH]c1=O
logP [31]: -0.09

Brc1cccc(-c2cc(Br)ccc2Br)c1
logP [32]: 6.2

CC(=O)NCCc1c[nH]c2ccccc12
logP [33]: 1.41

CO[C@@H]1N([C@H]2C[C@H](N=[N+]=[N-])[C@@H](CO)O2)C(=O)NC(=O)[C@@]1(C)Br
logP [23]: 1.22

CC(=O)NCCc1ccccc1
logP [33]: 1.19

Brc1ccc(-c2ccccc2)c(Br)c1
logP [32]: 5.53

OCCCCCCCc1ccccc1
logP [34]: 3.59

FC(F)(c1ccccc1)C(F)(F)c1ccccc1
logD [29]: 5

CCCCCC(=O)CC(=O)CCCCC
logP [1]: 4.88

O=[N+]([O-])c1ccc2c(c1)Cc1ccccc1-2
logP [35]: 3.99

CC(=O)OCCOCn1cnc2c(=O)[nH]c(N)nc21
logP [27]: -1.07

CC(=O)OC[C@H]1O[C@@H](n2cc(C)c(=O)[nH]c2=O)C[C@@H]1O
logP [31]: -0.25

c1ccc2c(c1)[nH]c1ccccc12
logD [9]: 3.29

CCNCC(=O)Nc1c(C)cccc1C
logP [21]: 1.32

CN1C[C@@H](N)C[C@@H]2c3cccc4[nH]cc(c34)C[C@H]21
logP [5]: 0.4

OCCCCc1ccccc1
logP [34]: 2.33

c1ccc2c(c1)Nc1ccccc1S2
logD [26]: 3.97

COc1ccc(Cn2cc(F)c(=O)[nH]c2=O)cc1
logD [18]: 1.04

COC(C)(C(=O)O)c1ccc2ccccc2c1 (configuration not stated)
logP [15]: 3.18

Clc1cc(Cl)c2oc3c(Cl)c(Cl)c(Cl)c(Cl)c3c2c1Cl
logP [20]: 7.93

CC(C)(N)Cc1ccccc1
logP [28]: 1.9

O=[N+]([O-])c1ccc(-c2ccc([N+](=O)[O-])cc2)cc1
logP [35]: 3.2

CC(=O)N(C)c1ccc(S(=O)(=O)N(C)C)cc1
logP [30]: 0.23
